Reference: patent US20240197756A1, “METHODS OF TREATMENT WITH NEUROACTIVE STEROIDS” (priority 2021, published 2024)
Entries after “also recorded” stand apart in the source; their conditions may differ.

What was measured:
[1] = system: GABAA receptors in the brain; assay: Quantitative EEG (qEEG) alpha- and beta-band power in Phase 1 MAD trial; assay type: in vivo, human
Method: Pharmacodynamic (PD) effects of first dose and steady state Compound 1 concentrations on wake electroencephalograms (EEGs) were studied. Standard 16 channel continuous EEGs were obtained at the following time points: Day-1, Day 1 (1 hour after dosing), and Day 14 (1 hour after dosing).
The effect of Compound 1 on the quantitative EEG (qEEG) was measured in a Phase 1 multiple ascending dose (MAD) trial to understand the pharmacodynamic effect of Compound 1 on GABAA receptor activation. The frequency and amplitude of the detected electrical signals in response to treatment with a brain-active compound provide insights into brain function and brain state (e.g., awake, deep sleep, etc.) or pharmacological response. For instance, changes in power in the beta-band frequency can be used as a pharmacodynamic biomarker of GABAA receptor activation in response to a brain active compound.
EEG was recorded for 5 minutes in quiet eyes open condition using a standard 10-20 EEG electrode placement system at pre-dose and 1, 2, 4, 8 and 24 hours after dosing. Each lead was referenced to the Oz electrode. Artifacts were removed via visual inspections. EEG spectra were computed using Fourier transformation. The alpha-band frequency was set to 8.5-12.5 Hz, the beta-band frequency was set to 12.5 to 30 Hz. The ratio between each post-dose value and the associated pre-dose value for each electrode was used to calculate the fold EEG change in each frequency band so that a ratio of 1 represents no change from baseline. The mean of the central 9 electrodes was used for each subject and timepoint for final analysis.

[2] = system: extrasynaptic form of GABAA receptors; assay: PAM selectivity for extrasynaptic vs synaptic GABAA receptors
GABAA receptors = assay: Pre-clinical qEEG beta power and animal models of anxiety and depression; assay type: in vivo; settings: pre-clinical studies
[3] = Food Effect Cohort (Cohort 4), plasma pharmacokinetics fasted vs high-fat meal; assay type: in vivo, human
Method: A Food Effect Cohort (Cohort 4) was conducted to assess the effect of food on the PK profile of a single dose of Compound 1 when administered to healthy subjects. The subjects of Cohort 4 were treated with 30 mg of Compound 1 QD.
Cohort 4 subjects received a single 30 mg dose of a Compound 1 suspension on Days 1 and 5. The Day 1 dose was administered after a minimum of 10 hour fasting. No additional fluid intake was allowed until 1 hour after drug administration. A standard meal was given at least 4 hours post-dose. The Day 5 dose was administered following a high-fat, high calorie meal. Participants remained at the clinical site for a total of 8 days to complete pharmacokinetic sampling after the second dose.
Plasma samples were analyzed to determine Compound 1 concentrations using a validated assay method. Pharmacokinetic variables (including but not limited to Cmax, Tmax and AUC(0-last)) were calculated using non-compartmental analysis. PK parameters for Compound 1 were derived from the plasma concentration data using non-compartmental analysis with Phoenix™ WinNonlin® v 8.0 (Pharsight Corporation, USA).
Blood (Cohort 4): Serial blood samples were collected relative to the dosing of Compound 1 at the following time points on both Day 1 and Day 5: Pre-dose (0 hours), 0.25, 0.50, 0.75, 1.00, 1.50, 2.00, 2.50, 3.00, 4.00, 6.00, 8.00, 12.00, 16.00, 24.00, 36.00, 48.00 and 72.00 hours post-dose (±2 min).

harmaline-induced tremor = assay: Rat Harmaline Induced Tremor (rHIT) model; assay type: in vivo; settings: 0.3, 1, 3, 10 mg/kg i.p., 30 min before harmaline 30 mg/kg i.p. (FIG. 9)
Source text: A rat model of tremor (Rat Harmaline Induced Tremor; rHIT) was used to assess the impact of Compound 1 on reducing the symptoms of tremor. Male SD rats (SLAC, Shanghai, China) having a body weight of about 250 g at the time of testing were fed ad libitum and kept in a 12:12 light-dark cycle room, with the lights on from 5 a.m. to 5 p.m, throughout the study. Rats were allowed to acclimate to standard laboratory conditions for at least 5-7 days prior to the experiment.
One day prior to testing, a naive rat was placed in the testing chamber, which was a plexiglass chamber with a piezoelectric plate attached at the bottom to transduce tremor behavior into an electrical signal. The rat was placed in the chamber in order to adjust the spontaneous activity baseline signal. […]
Next, at T=0 minutes, all groups were intraperitoneally administered 30 mg/kg (5 mL/kg) of harmaline formulated in a saline vehicle. The post-harmaline effect was measured for twenty minutes (T=10 to 30 minutes). […]
Piezoelectric plate signal analysis: For the power spectral density analysis, electrical tremor signal was processed with fast Fourier transform (FFT) at a resolution of 0.5 Hz bins. […] The average maximum power density across the 8-13 Hz band in 0.5 Hz bins was also calculated. […]

[4] = 30 mg, one hour post-dose on Day 1, healthy volunteers
[5] = 60 mg, one hour post-dose on Day 1, healthy volunteers
[6] = healthy volunteers, days 1 and 14
[7] = 30 mg single dose, Fasted (Day 1), n = 10, Mean
[8] = 30 mg single dose, Fed (high-fat, high calorie meal), n = 10, Mean

SMILES: COC[C@@]1(O)CC[C@@]2(C)[C@@H](CC[C@@H]3[C@@H]2CC[C@]2(C)[C@@H](C(=O)Cn4ccnc4)CC[C@@H]32)C1 [Compound 1, 3α-Hydroxy-3β-methoxymethyl-21-(1′-imidazolyl)-5α-pregnan-20-one]
- effects on the qEEG alpha and beta power at Day 14 ([1]; 30 mg and 60 mg QD): sustained
- average increase in qEEG alpha power compared to baseline [1, 4]: approximately 1.5 fold
- average increase in qEEG beta power compared to baseline [1, 4]: ~1.6 fold
- increase in qEEG alpha power compared to baseline [1, 5]: 2.6 fold
- increase in qEEG beta power compared to baseline [1, 5]: 2.8 fold
- increases in beta power ([1]; MAD study, up to 60 mg): up to 2.8 fold
- power of the alpha-band frequency (qEEG) [1, 6]: marked increases; also recorded: markedly increase
- power of the beta-band frequency (qEEG) [1, 6]: marked increases; also recorded: markedly increase
- selectivity as PAM of the extrasynaptic form of GABAA receptors compared to the synaptic form [2]: approximately 10 fold
- increase in beta power associated with robust activity in animal models of anxiety and depression (GABAA receptors): 1.6 fold
- t1/2 fasted vs fed conditions ([3]; 30 mg dose): similar
- AUC increase in the fed state versus the fasted state ([3]; 30 mg dose group): 1.17 fold
- AUC0-t Fed/Fasted Ratio ([3]; 30 mg dose, high-fat meal): 1.17
- Cmax Fed/Fasted Ratio ([3]; 30 mg dose, high-fat meal): 0.64
- AUC0-last [3, 7]: 597.7 ng·h/mL
- AUC %Extrap [3, 7]: 0.8702%
- AUCinf [3, 7]: 602.3 ng·h/mL
- Cmax [3, 7]: 84.18 ng/mL
- AUC0-last [3, 8]: 629.9 ng·h/mL
- AUC %Extrap [3, 8]: 0.6632%
- AUCinf [3, 8]: 634.2 ng·h/mL
- Cmax [3, 8]: 45.36 ng/mL
- Tmax ([3]; 30 mg single dose, Fed (high-fat, high calorie meal), n = 10, Median): 3.25 h
- Cmax decrease under fed conditions ([3]; human, in vivo, 30 mg): 0.64 fold
- half-life ([3]; human, in vivo, 30 mg single dose, Fasted (Day 1), n = 10, Mean): 11.2 h
- inhibition of harmaline-induced tremor (harmaline-induced tremor): dose-dependently inhibits; also recorded: dose dependent inhibition
